From paper doi:10.1101/2025.07.16.665058v1 (biorxiv, 2025)
Ends that are not written are not given here.

What was measured:
rat ASIC3 (rASIC3) [1] = molecular target: T1, rat ASIC3 (rASIC3) (Rattus norvegicus, UniProt O35240); assay: whole-cell patch clamp, HEK293, potentiation of pH5.5-evoked sustained current; format: cell-based; details: peptide applied in pH 7.4 resting solution, pH 5.5 pulse; positive modulator
T1 sequence (O35240 1-533): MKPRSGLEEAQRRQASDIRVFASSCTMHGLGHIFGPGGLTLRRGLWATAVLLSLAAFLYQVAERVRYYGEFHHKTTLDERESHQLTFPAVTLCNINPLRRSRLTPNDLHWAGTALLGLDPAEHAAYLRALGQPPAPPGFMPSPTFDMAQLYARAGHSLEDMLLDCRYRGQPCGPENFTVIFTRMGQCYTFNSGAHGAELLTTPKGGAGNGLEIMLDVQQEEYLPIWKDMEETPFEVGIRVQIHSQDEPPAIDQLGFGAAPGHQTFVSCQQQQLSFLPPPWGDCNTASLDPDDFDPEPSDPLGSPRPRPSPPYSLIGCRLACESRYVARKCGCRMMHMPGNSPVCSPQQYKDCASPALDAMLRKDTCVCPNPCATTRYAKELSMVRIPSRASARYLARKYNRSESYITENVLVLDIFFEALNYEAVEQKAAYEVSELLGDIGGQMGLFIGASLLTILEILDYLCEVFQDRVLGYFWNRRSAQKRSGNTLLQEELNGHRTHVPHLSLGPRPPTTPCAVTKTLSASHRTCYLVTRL

rat ASIC3 (rASIC3) [2] = molecular target: T1, rat ASIC3 (rASIC3); assay: whole-cell patch clamp, HEK293, pH5.5-evoked sustained current at […] s; format: cell-based; details: peptide in pH 7.4 resting solution, pH 5.5 pulse, -50 mV

Row | EC50 (rat ASIC3 (rASIC3) [1]) [µM] | Mean fold increase (I/Ictrl) (rat ASIC3 (rASIC3) [2]) [fold] | Substance
1 | 4.73 ± 0.8 | – | FRCCRF-NH2 (cysteine pairing not given here)
2 | 4.41 ± 0.95 | – | FRCRCF-NH2 (cysteine pairing not given here)
3 | – | 24.22 | FRC̄C̄RFamide
4 | – | 34.08 | FRC̄R̄C̄Famide
